The values that follow come from patent publication US10611731B2, “5-methyl-6-phenyl-4,5-dihydro-2H-pyridazin-3-one derivative” (OTSUKA PHARMACEUTICAL CO., LTD., priority 2016, dated 2020).

Data set [1] concerns human childhood brain tumor cell lines (PFSK-1). Description: Growth inhibitory activity against PFSK-1 cells (WST-8, Cell Counting Kit-8). Format: cell-based. The conditions noted are these: Homo sapiens, 72 h, 3 days incubation with test compound, WST-8 OD 450/630 nm, read-out: IC50 (concentration inhibiting 50% of the cell growth). The procedure, abridged:
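Cells seeded in RPMI 1640 with 10% FBS and preincubated 24 h at 37 °C, 5% CO2, then exposed to compound for 3 days. IC50 (nM) from growth relative to untreated control.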

For the compound `Cc1cc(C2=NNC(=O)CC2C)cc(Cl)c1OCCO` (centres unmarked) [Example 4, 6-[3-Chloro-4-(2-hydroxyethoxy)-5-methylphenyl]-5-methyl-4,5-dihydro-2H-pyridazin-3-one], the melting point (as a rule, the temperature of the solid-liquid transition) was in the range of 157.4 to 157.6 °C. `Cc1cc(C2=NNC(=O)CC2C)cc(Cl)c1OCCCO` (centres unmarked) [Example 17, 6-[3-Chloro-4-(3-hydroxypropoxy)-5-methylphenyl]-5-methyl-4,5-dihydro-2H-pyridazin-3-one] showed a melting point of 129.7 to 132.6 °C. Besides, in data set [1], the IC50 was 2.9 nM. Regarding `CC1CC(=O)NN=C1c1cc(Cl)c(OCCCO)c(Br)c1` (centres unmarked) [Example 18, 6-[3-Bromo-5-chloro-4-(3-hydroxypropoxy)phenyl]-5-methyl-4,5-dihydro-2H-pyridazin-3-one], the melting point is 153 to 156.6 °C. Besides, in data set [1], the IC50 turned out to be 4 nM. The corresponding values for `CC1CC(=O)NN=C1c1ccc(OCCCO)c(Cl)c1O` (centres unmarked) [Example 77, 6-[3-Chloro-2-hydroxy-4-(3-hydroxypropoxy)phenyl]-5-methyl-4,5-dihydro-2H-pyridazin-3-one] are 225 to 225.3 °C and 5.3 nM. Turning to `Cc1c(OCCCO)ccc(C2=NNC(=O)CC2C)c1O` (centres unmarked) [Example 78, 6-[2-Hydroxy-4-(3-hydroxypropoxy)-3-methylphenyl]-5-methyl-4,5-dihydro-2H-pyridazin-3-one], the melting point fell in the range of 199.1 to 200.1 °C. In addition, the IC50 in data set [1] was 6.6 nM. The corresponding values for `Cc1c(OCCCCO)ccc(C2=NNC(=O)CC2C)c1O` (centres unmarked) [Example 87, 6-[2-Hydroxy-4-(4-hydroxybutoxy)-3-methylphenyl]-5-methyl-4,5-dihydro-2H-pyridazin-3-one] are 178.7 to 179.9 °C and 9.8 nM.

Turning to `CC1CC(=O)NN=C1c1ccc(OCCCCO)c(Cl)c1O` (centres unmarked) [Example 88, 6-[3-Chloro-2-hydroxy-4-(4-hydroxybutoxy)phenyl]-5-methyl-4,5-dihydro-2H-pyridazin-3-one], the melting point lay in the range of 204.5 to 204.9 °C. Further, in data set [1], the IC50 came to 9.5 nM.

The compound `C=Cc1c(OCCCCO)ccc(C2=NNC(=O)CC2C)c1F` (centres unmarked) [Example 89, 6-[2-Fluoro-4-(4-hydroxybutoxy)-3-vinylphenyl]-5-methyl-4,5-dihydro-2H-pyridazin-3-one] yielded a melting point of 106.4 to 107.4 °C. Further, the IC50 in data set [1] amounted to 4.9 nM. On to `CC1CC(=O)NN=C1c1cc(Cl)c(OCC2(O)CC2)c(Cl)c1` (centres unmarked) [Example 170, 6-{3,5-Dichloro-4-[(1-hydroxycyclopropyl)methoxy]phenyl}-5-methyl-4,5-dihydro-2H-pyridazin-3-one], for which, in data set [1], the IC50 worked out at 2.5 nM.

As to `Cc1cc(C2=NNC(=O)CC2C)c(F)c(C)c1OCC1(O)CC1` (centres unmarked) [Example 171, 6-{2-Fluoro-4-[(1-hydroxycyclopropyl)methoxy]-3,5-dimethylphenyl}-5-methyl-4,5-dihydro-2H-pyridazin-3-one], in data set [1], the IC50 was 6.3 nM. With `CC1CC(=O)NN=C1c1cc(F)c(OCC2(O)CC2)c(Cl)c1F` (centres unmarked) [Example 172, 6-{3-Chloro-2,5-difluoro-4-[(1-hydroxycyclopropyl)methoxy]phenyl}-5-methyl-4,5-dihydro-2H-pyridazin-3-one], in data set [1], the IC50 amounted to 5.2 nM. `CC1CC(=O)NN=C1c1ccc(OCC2(O)CC2)c(Cl)c1O` (centres unmarked) [Example 174, 6-{3-Chloro-2-hydroxy-4-[(1-hydroxycyclopropyl)methoxy]phenyl}-5-methyl-4,5-dihydro-2H-pyridazin-3-one]: the IC50 in data set [1] was 4.2 nM. For the compound `Cc1cc(C2=NNC(=O)CC2C)c(O)c(Cl)c1OCC1(O)CC1` (centres unmarked) [Example 175, 6-{3-Chloro-2-hydroxy-4-[(1-hydroxycyclopropyl)methoxy]-5-methylphenyl}-5-methyl-4,5-dihydro-2H-pyridazin-3-one], the IC50 in data set [1] worked out at 4.1 nM. `Cc1c(O)c(C2=NNC(=O)CC2C)cc(Cl)c1OCC1(O)CC1` (centres unmarked) [Example 176, 6-{5-Chloro-2-hydroxy-4-[(1-hydroxycyclopropyl)methoxy]-3-methylphenyl}-5-methyl-4,5-dihydro-2H-pyridazin-3-one]: the IC50 in data set [1] came to 9.2 nM. As to `Cc1cc(C2=NNC(=O)CC2C)c(F)cc1OC(F)(F)CO` (centres unmarked) [Example 177, 6-[4-(1,1-difluoro-2-hydroxyethoxy)-2-fluoro-5-methylphenyl]-5-methyl-4,5-dihydro-2H-pyridazin-3-one], the IC50 in data set [1] worked out at 4 nM.

In the case of `Cc1c(OCCCO)ccc(C2=NNC(=O)C[C@H]2C)c1O` [Example 178, (5R)-(−)-6-[2-hydroxy-4-(3-hydroxypropoxy)-3-methylphenyl]-5-methyl-4,5-dihydro-2H-pyridazin-3-one], the IC50 in data set [1] turned out to be 4.6 nM. Regarding `Cc1c(OCC(C)(C)O)ccc(C2=NNC(=O)C[C@H]2C)c1O` [Example 179, (5R)-(−)-6-[2-hydroxy-4-(2-hydroxy-2-methylpropoxy)-3-methylphenyl]-5-methyl-4,5-dihydro-2H-pyridazin-3-one], in data set [1], the IC50 turned out to be 3.3 nM. As for `C[C@@H]1CC(=O)NN=C1c1ccc(OCCCCO)c(Cl)c1O` [Example 180, (5R)-(−)-6-[3-chloro-2-hydroxy-4-(4-hydroxybutoxy)phenyl]-5-methyl-4,5-dihydro-2H-pyridazin-3-one], the IC50 in data set [1] stood at 6.5 nM. For `Cc1cc(C2=NNC(=O)C[C@H]2C)c(O)c(Cl)c1OCCCO` [Example 181, (5R)-(−)-6-[3-chloro-2-hydroxy-4-(3-hydroxypropoxy)-5-methylphenyl]-5-methyl-4,5-dihydro-2H-pyridazin-3-one], the IC50 in data set [1] was 3.9 nM. Regarding `C[C@@H]1CC(=O)NN=C1c1ccc(OCC(C)(C)O)c(Cl)c1O` [Example 182, (5R)-(−)-6-[3-chloro-2-hydroxy-4-(2-hydroxy-2-methylpropoxy)phenyl]-5-methyl-4,5-dihydro-2H-pyridazin-3-one], the IC50 in data set [1] was 2.9 nM. With `C[C@@H]1CC(=O)NN=C1c1ccc(OC/C=C\CO)c(Cl)c1O` [Example 183, (5R)-(−)-6-{3-chloro-2-hydroxy-4-[(Z)-4-hydroxy-2-butenyloxy]phenyl}-5-methyl-4,5-dihydro-2H-pyridazin-3-one], in data set [1], the IC50 worked out at 4.5 nM.

Turning to `CC1CC(=O)NN=C1c1ccc(OCC(C)(C)O)c(C(F)(F)F)c1F` (centres unmarked) [Example 184, 6-[2-fluoro-4-(2-hydroxy-2-methylpropoxy)-3-(trifluromethyl)phenyl]-5-methyl-4,5-dihydro-2H-pyridazin-3-one], the IC50 in data set [1] was 2.2 nM.
